Measured values published in EPA's ToxRefDB 2.

Tests used:
rat [1] = conditions: Subchronic oral toxicity in rodents, other, [Not Specified], dose end: 90 day, group: systemic
dog [2] = conditions: Chronic toxicity, beagle, Oral, Feed, dose end: 24 month, group: systemic
rat [3] = conditions: Combined chronic toxicity/carcinogenicity; fischer; Oral; Feed; dose end: 110 week; group: systemic; systemic / clinical chemistry / cholesterol / cholesterol + systemic / clinical chemistry / creatinine / creatinine + systemic / clinical …
rat [4] = conditions: Multigenerational reproductive toxicity study, sprague dawley, Oral, Feed, dose end: 2 generation
hamster [5] = conditions: Subchronic oral toxicity in rodents, golden syrian, Feed, dose end: 13 week, group: systemic
hamster [6] = conditions: Carcinogenicity; golden syrian; Oral; Feed; dose end: 88 week; group: systemic; systemic / pathology microscopic / pancreas / hyperplasia + systemic / pathology microscopic / prostate / secretory fluid + systemic / …
hamster [7] = conditions: Carcinogenicity, golden syrian, Oral, Feed, dose end: 91 week, group: systemic
rabbit [8] = conditions: Prenatal developmental toxicity study, new zealand white, Oral, Gavage/Intubation, dose end: 19 GD
rat [9] = conditions: Subchronic oral toxicity in rodents, fischer, Gavage/Intubation, dose end: 14 week, group: systemic, systemic / in life observation / body weight / body weight + systemic / in life observation / body weight / body weight gain + systemic / …
mouse [10] = conditions: Subchronic oral toxicity in rodents, b6c3f1, Gavage/Intubation, dose end: 14 week, group: systemic
mouse [11] = conditions: Carcinogenicity; b6c3f1; Oral; Gavage/Intubation; dose end: 105 week; group: systemic; systemic / in life observation / body weight / body weight + systemic / pathology microscopic / liver / hematopoietic cell proliferation + …
rat [12] = conditions: Carcinogenicity; fischer; Oral; Gavage/Intubation; dose end: 105 week; group: systemic; systemic / in life observation / body weight / body weight + systemic / pathology gross / liver / discolored + systemic / pathology gross / …
rabbit [13] = conditions: Prenatal developmental toxicity study, new zealand white, Oral, Gavage/Intubation, dose end: 27 GD
rat [14] = conditions: Reproduction/developmental toxicity screening test, sprague dawley, Dermal, Topical, dose end: 1 generation
rabbit [15] = conditions: Subchronic dermal toxicity, new zealand white, Topical, dose end: 13 week, group: systemic, systemic / pathology gross / skin / scabbing + systemic / pathology microscopic / skin / inflammation + systemic / in life observation / …
rat [16] = conditions: Prenatal developmental toxicity study, other, Oral, Gavage/Intubation, dose end: 15 GD
dog [17] = conditions: Chronic toxicity, beagle, Oral, Feed, dose end: 52 week, group: systemic
mouse [18] = conditions: Carcinogenicity, cd1, Oral, Feed, dose end: 24 month, group: systemic
rat [19] = conditions: Subchronic oral toxicity in rodents, sprague dawley, Feed, dose end: 90 day, group: systemic
rat [20] = conditions: Combined chronic toxicity/carcinogenicity, sprague dawley, Oral, Feed, dose end: 24 month, group: systemic
[21] = systemic / organ weight / liver / nos
[22] = systemic / organ weight / liver / nos + systemic / hematology / leukocyte (wbc) count differential / leukocyte (wbc) + systemic / hematology…
[23] = systemic / clinical chemistry / [other] / [other] + systemic / clinical chemistry / alanine aminotransferase (alt/sgpt) / alanine …
[24] = group: offspring, systemic / in life observation / body weight / offspring (pup) weight
[25] = group: parental, systemic / in life observation / body weight / body weight + systemic / in life observation / body weight / body weight gain + systemic / in…
[26] = group: reproductive, reproductive / reproductive performance / implantations / implantations
[27] = systemic / clinical chemistry / lipids / phospholipids + systemic / organ weight / liver / nos + systemic / organ weight / prostate / nos + …
[28] = systemic / clinical chemistry / lipids / phospholipids + systemic / organ weight / liver / nos + systemic / pathology microscopic / …
[29] = systemic / in life observation / body weight / body weight gain
[30] = systemic / in life observation / body weight / body weight gain + systemic / organ weight / heart / nos
[31] = group: developmental, developmental / developmental malformation / aortic arch / dilated + developmental / developmental malformation / aortic arch / narrowed + …
[32] = group: maternal, reproductive / reproductive performance / postimplantation loss / postimplantation loss + reproductive / reproductive performance / …
[33] = systemic / in life observation / body weight / body weight gain + systemic / organ weight / liver / absolute + systemic / organ weight / …
[34] = systemic / organ weight / epididymis / nos + systemic / organ weight / testes / nos
[35] = group: developmental, systemic / in life observation / body weight / fetal weight
[36] = group: maternal, systemic / in life observation / body weight / body weight gain + systemic / in life observation / food consumption / food consumption + …
[37] = group: offspring, systemic / in life observation / body weight / offspring (pup) weight + systemic / in life observation / clinical signs / desquamation + …
[38] = group: parental, systemic / in life observation / clinical signs / desquamation + systemic / in life observation / clinical signs / erythema + systemic / …
[39] = group: developmental, developmental / developmental malformation / bone / unossified
[40] = group: maternal, systemic / in life observation / body weight / body weight + systemic / in life observation / body weight / body weight gain + systemic / …
[41] = systemic / pathology microscopic / prostate / hyperplasia
[42] = systemic / pathology microscopic / liver / cytomegaly
[43] = systemic / pathology microscopic / liver / cytomegaly + systemic / pathology microscopic / lung / adenoma + systemic / in life observation…
[44] = systemic / clinical chemistry / calcium / calcium + systemic / organ weight / heart / relative to body weight
[45] = systemic / in life observation / body weight / body weight + systemic / in life observation / body weight / body weight gain

## N#Cc1c(Cl)cccc1Cl [Dichlobenil]
Rat [1]; [21]
  LEL: 50 mg/kg/day
  LOAEL: 50 mg/kg/day
Rat [1]; [22]
  NEL: 5 mg/kg/day
  NOAEL: 5 mg/kg/day
Dog [2]; [23]
  LOAEL: 8.75 mg/kg/day
  NEL: 0.5 mg/kg/day
  NOAEL: 1.25 mg/kg/day
Dog [2]; systemic / urinalysis / occult blood / blood
  LEL: 1.25 mg/kg/day
Rat [3]
  LEL: 17.3 mg/kg/day
  LOAEL: 17.3 mg/kg/day
  NEL: 2.1 mg/kg/day
  NOAEL: 2.1 mg/kg/day
Rat [4]; [24]
  LEL: 15 mg/kg/day
  LOAEL: 15 mg/kg/day
  NEL: 3 mg/kg/day
  NOAEL: 3 mg/kg/day
Rat [4]; [25]
  LEL: 100 mg/kg/day
  LOAEL: 100 mg/kg/day
  NEL: 15 mg/kg/day
  NOAEL: 15 mg/kg/day
Rat [4]; [26]
  LEL: 100 mg/kg/day
  LOAEL: > 100 mg/kg/day
  NEL: 15 mg/kg/day
  NOAEL: ≥ 100 mg/kg/day
Hamster [5]; [27]
  LEL: 18.8 mg/kg/day
  LOAEL: 18.8 mg/kg/day
Hamster [5]; [28]
  NEL: 3.75 mg/kg/day
  NOAEL: 3.75 mg/kg/day
Hamster [6]
  LEL: 45.6 mg/kg/day
  LOAEL: 45.6 mg/kg/day
  NEL: 9.39 mg/kg/day
  NOAEL: 9.39 mg/kg/day
Hamster [7]; [29]
  LOAEL: 51 mg/kg/day
  NOAEL: < 51 mg/kg/day
Hamster [7]; [30]
  LEL: 51 mg/kg/day
  NEL: < 51 mg/kg/day
Rabbit [8]; [31]
  LEL: 135 mg/kg/day
  LOAEL: 135 mg/kg/day
  NEL: 45 mg/kg/day
  NOAEL: 45 mg/kg/day
Rabbit [8]; [32]
  LEL: 135 mg/kg/day
  LOAEL: 135 mg/kg/day
  NEL: 45 mg/kg/day
  NOAEL: 45 mg/kg/day

## C=CCc1ccc(OC)c(OC)c1 [Methyleugenol]
Rat [9]
  LEL: 10 mg/kg/day
  LOAEL: 300 mg/kg/day
  NEL: < 10 mg/kg/day
  NOAEL: 100 mg/kg/day
Mouse [10]; [33]
  LOAEL: 300 mg/kg/day
  NOAEL: 100 mg/kg/day
Mouse [10]; [34]
  LEL: 10 mg/kg/day
  NEL: < 10 mg/kg/day
Mouse [11]
  LEL: 37 mg/kg/day
  LOAEL: 37 mg/kg/day
  NEL: < 37 mg/kg/day
  NOAEL: < 37 mg/kg/day
Rat [12]
  LEL: 37 mg/kg/day
  LOAEL: 75 mg/kg/day
  NEL: < 37 mg/kg/day
  NOAEL: 37 mg/kg/day

## ClC=CC[N+]12CN3CN(CN(C3)C1)C2.[Cl-] [N-(3-Chloroallyl)hexaminium chloride]
Rabbit [13]; [35]
  LEL: 16 mg/kg/day
  LOAEL: 16 mg/kg/day
  NEL: 5.1 mg/kg/day
  NOAEL: 5.1 mg/kg/day
Rabbit [13]; [36]
  LEL: 16 mg/kg/day
  LOAEL: 16 mg/kg/day
  NEL: 5.1 mg/kg/day
  NOAEL: 5.1 mg/kg/day
Rat [14]; [24]
  NEL: 75 mg/kg/day
Rat [14]; [37]
  LEL: 225 mg/kg/day
  LOAEL: > 750 mg/kg/day
  NOAEL: ≥ 750 mg/kg/day
Rat [14]; [25]
  LOAEL: > 750 mg/kg/day
  NOAEL: ≥ 750 mg/kg/day
Rat [14]; [38]
  LEL: 75 mg/kg/day
  NEL: < 75 mg/kg/day
Rabbit [15]
  LEL: 50 mg/kg/day
  LOAEL: > 1000 mg/kg/day
  NEL: < 50 mg/kg/day
  NOAEL: ≥ 1000 mg/kg/day

## COc1nc(C)nc(NC(=O)NS(=O)(=O)c2ccccc2OCCCl)n1 [Triasulfuron]
Rat [16]; [39]
  LEL: 100 mg/kg/day
  LOAEL: 900 mg/kg/day
  NEL: < 100 mg/kg/day
Rat [16]; group: developmental, developmental / developmental malformation / bone / unossified + systemic / in life observation / body weight / fetal weight
  NOAEL: 300 mg/kg/day
Rat [16]; group: maternal, systemic / in life observation / body weight / body weight + systemic / in life observation / body weight / body weight gain
  LOAEL: 300 mg/kg/day
Rat [16]; group: maternal, systemic / in life observation / body weight / body weight + systemic / in life observation / body weight / body weight gain + systemic / in…
  LEL: 300 mg/kg/day
Rat [16]; [40]
  NEL: 100 mg/kg/day
  NOAEL: 100 mg/kg/day
Dog [17]; [41]
  LEL: 2.5 mg/kg/day
  LOAEL: 25 mg/kg/day
  NEL: < 2.5 mg/kg/day
Dog [17]; systemic / pathology microscopic / prostate / hyperplasia + systemic / hematology / erythrocyte (rbc) count differential / erythrocyte (rbc…
  NOAEL: 2.5 mg/kg/day
Mouse [18]; [42]
  LEL: 129 mg/kg/day
  LOAEL: 129 mg/kg/day
Mouse [18]; [43]
  NEL: 1.2 mg/kg/day
  NOAEL: 1.2 mg/kg/day
Rat [19]; [44]
  LEL: 10 mg/kg/day
  NEL: < 10 mg/kg/day
Rat [19]; systemic / in life observation / body weight / body weight + systemic / in life observation / food consumption / food consumption
  LOAEL: 500 mg/kg/day
Rat [19]; systemic / in life observation / body weight / body weight + systemic / in life observation / food consumption / food consumption + systemic…
  NOAEL: 10 mg/kg/day
Rat [20]; [45]
  LOAEL: 221 mg/kg/day
  NOAEL: 32.1 mg/kg/day
Rat [20]; systemic / in life observation / clinical signs / palpable mass
  LEL: 42.9 mg/kg/day
Rat [20]; systemic / in life observation / clinical signs / palpable mass + systemic / in life observation / body weight / body weight + systemic / in…
  NEL: 0.4 mg/kg/day
